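Grown in 96-well plates, cells were treated for 48 hours with each compound at five concentrations. Insufficient inhibition: endpoint recorded as highest concentration tested. GI50 marks 50% less growth. TGI: total growth inhibition.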
Assays:
Experiment in all cases: NCI-60 cell line screen, 48 h
[1] = system: K-562 leukemia
[2] = system: IGROV1 ovarian
[3] = system: UACC-257 melanoma
[4] = system: DU-145 prostate
[5] = system: CAKI-1 renal
[6] = system: MCF7 breast
[7] = system: HT29 colon
[8] = system: A549 NSCLC
[9] = system: HOP-92 NSCLC
[10] = system: HS 578T breast
[11] = system: 786-0 renal
[12] = system: M14 melanoma
[13] = system: MOLT-4 leukemia
[14] = system: HCT-15 colon
[15] = system: OVCAR-4 ovarian
[16] = system: SW-620 colon
[17] = system: HL-60(TB) leukemia
[18] = system: A498 renal
[19] = system: CCRF-CEM leukemia
[20] = system: UACC-62 melanoma
[21] = system: SK-MEL-28 melanoma
[22] = system: NCI-H522 lung
[23] = system: NCI/ADR-RES ovarian
[24] = system: PC-3 prostate
[25] = system: RXF 393 renal
[26] = system: NCI-H226 lung
[27] = system: OVCAR-3 ovarian
[28] = system: HOP-62 NSCLC
[29] = system: NCI-H23 lung
[30] = system: SK-MEL-2 melanoma
[31] = system: TK-10 renal
[32] = system: MDA-MB-231 breast
[33] = system: HCC-2998 colon
[34] = system: SN12C renal
[35] = system: OVCAR-8 ovarian
[36] = system: BT-549 breast
[37] = system: ACHN renal
[38] = system: SK-OV-3 ovarian
[39] = system: SNB-75 CNS
[40] = system: SNB-19 CNS
[41] = system: MDA-MB-435
[42] = system: COLO 205 colon
[43] = system: NCI-H460 lung
[44] = system: UO-31 renal
[45] = system: T-47D breast
[46] = system: LOX IMVI melanoma
[47] = system: RPMI-8226 leukemia
[48] = system: U251 CNS
[49] = system: KM12 colon
[50] = system: SF-295 CNS
[51] = system: MALME-3M melanoma
[52] = system: HCT-116 colon
[53] = system: SK-MEL-5 melanoma
[54] = system: SF-539 CNS
[55] = system: SF-268 CNS
[56] = system: OVCAR-5 ovarian
[57] = system: EKVX NSCLC
[58] = system: SR leukemia

O=C(Oc1ccccc1)c1cc(O)c(O)c(O)c1
GI50 [1]: 5.78 µM | TGI [1]: 70.9 µM | GI50 [2]: 11.6 µM | TGI [2]: > 100 µM | GI50 [3]: 35.8 µM | TGI [3]: > 100 µM | GI50 [4]: 15.7 µM | TGI [4]: > 100 µM | GI50 [5]: 15.4 µM | TGI [5]: > 100 µM | GI50 [6]: 24.7 µM | TGI [6]: > 100 µM | GI50 [7]: 30 µM | TGI [7]: > 100 µM | GI50 [8]: 9.64 µM | TGI [8]: > 100 µM | GI50 [9]: 8.75 µM | TGI [9]: 81.4 µM | GI50 [10]: 4.67 µM | TGI [10]: > 100 µM | GI50 [11]: 11.2 µM | TGI [11]: 50 µM | GI50 [12]: 11.9 µM | TGI [12]: 34 µM | GI50 [13]: 2.23 µM | TGI [13]: 26.2 µM | GI50 [14]: 5.98 µM | TGI [14]: > 100 µM | GI50 [15]: 14 µM | TGI [15]: > 100 µM | GI50 [16]: 14.3 µM | TGI [16]: > 100 µM | GI50 [17]: 1.43 µM | TGI [17]: 7.12 µM | GI50 [18]: 5 µM | TGI [18]: 76.1 µM | GI50 [19]: 1.28 µM | TGI [19]: > 100 µM | GI50 [20]: 8.45 µM | TGI [20]: 56.4 µM | GI50 [21]: 19.2 µM | TGI [21]: > 100 µM | GI50 [22]: 4.1 µM | TGI [22]: 42.5 µM | GI50 [23]: 11.4 µM | TGI [23]: 56.7 µM | GI50 [24]: 13.7 µM | TGI [24]: > 100 µM | GI50 [25]: 25.6 µM | TGI [25]: > 100 µM | GI50 [26]: 12.9 µM | TGI [26]: > 100 µM | GI50 [27]: 4.34 µM | TGI [27]: 47.3 µM | GI50 [28]: 5.13 µM | TGI [28]: 70.3 µM | GI50 [29]: 11.7 µM | TGI [29]: 59.2 µM | GI50 [30]: 35.9 µM | TGI [30]: > 100 µM | GI50 [31]: 29.1 µM | TGI [31]: > 100 µM | GI50 [32]: 26.2 µM | TGI [32]: > 100 µM | GI50 [33]: 13.5 µM | TGI [33]: 44.3 µM | GI50 [34]: 9.73 µM | TGI [34]: > 100 µM | GI50 [35]: 9.82 µM | TGI [35]: > 100 µM | GI50 [36]: 15.6 µM | TGI [36]: 83.2 µM | GI50 [37]: 9.72 µM | TGI [37]: > 100 µM | GI50 [38]: 9.22 µM | TGI [38]: > 100 µM | GI50 [39]: 7.41 µM | TGI [39]: > 100 µM | GI50 [40]: 13.8 µM | TGI [40]: > 100 µM | GI50 [41]: 13.1 µM | TGI [41]: > 100 µM | GI50 [42]: 18.9 µM | TGI [42]: > 100 µM | GI50 [43]: 4.54 µM | TGI [43]: > 100 µM | GI50 [44]: 2.93 µM | TGI [44]: > 100 µM | GI50 [45]: 18.1 µM | TGI [45]: > 100 µM | GI50 [46]: 8.97 µM | TGI [46]: > 100 µM | GI50 [47]: 11.4 µM | TGI [47]: > 100 µM | GI50 [48]: 10.7 µM | TGI [48]: > 100 µM | GI50 [49]: 11.5 µM | TGI [49]: > 100 µM | GI50 [50]: 17.9 µM | TGI [50]: 83.7 µM | GI50 [51]: 21.8 µM | TGI [51]: > 100 µM | GI50 [52]: 11.7 µM | TGI [52]: > 100 µM | GI50 [53]: 11.4 µM | TGI [53]: 38.8 µM | GI50 [54]: 5.65 µM | TGI [54]: 36.3 µM | GI50 [55]: 8.15 µM | TGI [55]: > 100 µM | GI50 [56]: 25.2 µM | TGI [56]: > 100 µM | GI50 [57]: 8.95 µM | TGI [57]: > 100 µM

COc1ccc(C2=NNC(c3ccc(-c4ccc(OC)cc4[N+](=O)[O-])o3)C2)cc1 (centres undefined)
GI50 [1]: 36.4 µM | TGI [1]: > 100 µM | GI50 [2]: 59.9 µM | TGI [2]: > 100 µM | GI50 [3]: 38.4 µM | TGI [3]: > 100 µM | GI50 [4]: 36.3 µM | TGI [4]: > 100 µM | GI50 [6]: 20 µM | TGI [6]: > 100 µM | GI50 [7]: 44.9 µM | TGI [7]: > 100 µM | GI50 [8]: 39.5 µM | TGI [8]: > 100 µM | GI50 [9]: 15.1 µM | TGI [9]: 81 µM | GI50 [10]: 22.1 µM | TGI [10]: 57.5 µM | GI50 [11]: 48.8 µM | TGI [11]: > 100 µM | GI50 [12]: 71.3 µM | TGI [12]: > 100 µM | GI50 [13]: 31 µM | TGI [13]: > 100 µM | GI50 [14]: 31 µM | TGI [14]: > 100 µM | GI50 [15]: > 100 µM | TGI [15]: > 100 µM | GI50 [16]: 78.2 µM | TGI [16]: > 100 µM | GI50 [17]: 71.7 µM | TGI [17]: > 100 µM | GI50 [18]: 31.6 µM | TGI [18]: > 100 µM | GI50 [58]: 20.2 µM | TGI [58]: > 100 µM | GI50 [19]: 70 µM | TGI [19]: > 100 µM | GI50 [20]: 0.691 µM | TGI [20]: 19.4 µM | GI50 [21]: > 100 µM | TGI [21]: > 100 µM | GI50 [22]: 34.9 µM | TGI [22]: > 100 µM | GI50 [23]: 17.9 µM | TGI [23]: 59.9 µM | GI50 [24]: 83.3 µM | TGI [24]: > 100 µM | GI50 [25]: 20.3 µM | TGI [25]: 54.1 µM | GI50 [27]: 21 µM | TGI [27]: 62.2 µM | GI50 [28]: 30.6 µM | TGI [28]: > 100 µM | GI50 [29]: 33 µM | TGI [29]: > 100 µM | GI50 [30]: > 100 µM | TGI [30]: > 100 µM | GI50 [31]: 14.8 µM | TGI [31]: 46.3 µM | GI50 [32]: 1.89 µM | TGI [32]: 43.6 µM | GI50 [33]: 36.9 µM | TGI [33]: > 100 µM | GI50 [35]: 21.2 µM | TGI [35]: 75.5 µM | GI50 [36]: 26.6 µM | TGI [36]: 93.5 µM | GI50 [37]: 42.2 µM | TGI [37]: > 100 µM | GI50 [38]: 49.7 µM | TGI [38]: > 100 µM | GI50 [39]: 21.2 µM | TGI [39]: 84.3 µM | GI50 [40]: 31.8 µM | TGI [40]: > 100 µM | GI50 [41]: 25.3 µM | TGI [41]: 91.3 µM | GI50 [42]: > 100 µM | TGI [42]: > 100 µM | GI50 [43]: 46.8 µM | TGI [43]: > 100 µM | GI50 [44]: > 100 µM | TGI [44]: > 100 µM | GI50 [45]: 18.5 µM | TGI [45]: 88.1 µM | GI50 [46]: 41.9 µM | TGI [46]: > 100 µM | GI50 [47]: 36.8 µM | TGI [47]: > 100 µM | GI50 [48]: 19.4 µM | TGI [48]: 50.3 µM | GI50 [49]: 27.4 µM | TGI [49]: > 100 µM | GI50 [50]: 29.5 µM | TGI [50]: > 100 µM | GI50 [51]: 0.412 µM | TGI [51]: 69.5 µM | GI50 [52]: 22.8 µM | TGI [52]: > 100 µM | GI50 [53]: 72.7 µM | TGI [53]: > 100 µM | GI50 [54]: 10.1 µM | TGI [54]: 23.1 µM | GI50 [55]: 20.3 µM | TGI [55]: 53.2 µM | GI50 [56]: > 100 µM | TGI [56]: > 100 µM | GI50 [57]: 18.4 µM | TGI [57]: > 100 µM

Source: PubChem BioAssay (NCI)
